Data: article PMC9604439, “Mutation Hotspot for Changing the Substrate Specificity of β-N-Acetylhexosaminidase: A Library of GlcNAcases” (International Journal of Molecular Sciences, 2022)

Tests used:
[1] = target: T1, TfHex (β-N-acetylhexosaminidase from Talaromyces flavus) (Talaromyces flavus, UniProt G5DAA0, E332K); assay: discontinuous p-nitrophenolate release assay, non-linear regression; assay type: biochemical; conditions: McIlvaine buffer pH 5.0, 25 °C; not measured to full saturation, estimate only
T1 construct: secreted via alpha-factor, pPICZαA, Pichia pastoris KM71H, cation-exchange purified; tetramer of two catalytic subunits and two non-covalently linked propeptides
T1 sequence (G5DAA0 entry or part of it E332K): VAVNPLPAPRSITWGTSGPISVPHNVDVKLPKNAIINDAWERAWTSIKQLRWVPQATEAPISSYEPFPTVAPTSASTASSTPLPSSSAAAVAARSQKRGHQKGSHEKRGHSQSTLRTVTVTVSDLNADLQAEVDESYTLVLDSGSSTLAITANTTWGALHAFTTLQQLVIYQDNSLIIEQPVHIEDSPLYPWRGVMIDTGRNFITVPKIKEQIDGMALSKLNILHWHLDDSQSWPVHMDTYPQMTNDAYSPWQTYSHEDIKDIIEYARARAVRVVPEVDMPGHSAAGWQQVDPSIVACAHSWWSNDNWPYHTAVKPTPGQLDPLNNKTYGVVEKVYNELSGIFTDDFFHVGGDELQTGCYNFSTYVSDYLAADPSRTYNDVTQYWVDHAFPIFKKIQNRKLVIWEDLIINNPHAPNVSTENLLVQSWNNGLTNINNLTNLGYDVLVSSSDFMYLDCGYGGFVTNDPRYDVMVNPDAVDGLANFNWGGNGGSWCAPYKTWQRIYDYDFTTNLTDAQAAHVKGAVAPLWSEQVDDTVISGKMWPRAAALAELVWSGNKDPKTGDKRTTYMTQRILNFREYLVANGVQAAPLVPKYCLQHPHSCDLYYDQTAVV
Description: discontinuous p-nitrophenolate release assay, non-linear regression on TfHex (β-N-acetylhexosaminidase from Talaromyces flavus) | for Glu332Lys TfHex, only estimates of kinetic parameters are presented

[2] = target: T2, TfHex (β-N-acetylhexosaminidase from Talaromyces flavus) (Talaromyces flavus, UniProt G5DAA0, E332H); assay: as above; assay type: biochemical; conditions: McIlvaine buffer pH 5.0, 25 °C; not measured to full saturation
T2 construct: secreted via alpha-factor, pPICZαA, Pichia pastoris KM71H, cation-exchange purified; tetramer of two catalytic subunits and two non-covalently linked propeptides
T2 sequence (G5DAA0 entry or part of it E332H): as the sequence (G5DAA0 entry or part of it E332K) above, with K315H counted along it

Km [1]: > 7 mM
Km [2]: > 7 mM
SMILES: CC(=O)N[C@H]1[C@H](Oc2ccc([N+](=O)[O-])cc2)O[C@H](CO)[C@@H](O)[C@@H]1O [pNP-GlcNAc, p-Nitrophenyl 2-acetamido-2-deoxy-β-D-glucopyranoside]
